Measured values: US20230058189A1, “QUINOLIN-4-ONE AND 4(1H)-CINNOLINONE COMPOUNDS AND METHODS OF USING SAME” (Frequency Therapeutics, Inc., priority 2019, published 2023)

Columns and labels:
Assay type in all cases: biochemical
LSD-1 = LSD-1 (Homo sapiens, UniProt O60341); assay: LSD-1 A-screen (AlphaScreen) demethylase enzymatic assay; conditions: approximate values; for inhibition at 50 µM: 50 μM compound, read-out: Potency LSD-1 % Inhibition at 50 μM; for IC50: read-out: Potency LSD-1 IC50
Protocol: (§1) Enzymatic activities of compounds of the present disclosure can be tested with recombinant human LSD using an in vitro enzymatic assay to determine the ability of the compounds of the present disclosure to inhibit LSD-1 and LSD2. Examples of the assay are provided below.
(§2) All of the enzymatic reactions were conducted in duplicate at room temperature for 60 minutes in a 10 μL mixture containing assay buffer, histone H3 peptide substrate, demthylase enzyme, and the test compound. These 10 μL reactions were carried out in wells of a 384-well Optiplate (PerkinElmer). The dilution of the compounds was first performed in 100% DMSO with the highest concentration at 5 mM Each intermediate compound dilution (in 100% DMSO) was then directly diluted 30× fold into assay buffer for 3.3× concentration (DMSO). […] From this intermediate step, 3 μL of compound was added to 4 μL of demethylase enzyme dilution was incubated for 30 minutes at room temperature. After this incubation, 3 μL of peptide substrate was added. The final DMSO concentration was 1%. After enzymatic reactions, 5 μL of anti-Mouse or anti-Rabbit Acceptor beads (PerkinElmer, diluted 1:500 with 1× detection buffer) and […] (BPS, diluted 1:800 with 1× detection buffer) were added to the reaction mix. After brief shaking, the plate was incubated for 30 minutes. Finally, 10 μL of AlphaScreen™ Streptavidin-conjugated donor beads (Perkin, diluted 1:125 with 1× detection buffer) were added. After 30 minutes, the samples were measured in an AlphaScreen microplate reader (EnSpire Alpha 2390 Multilabel Reader, Perkin Elmer).
(§3) Enzyme activity assays were performed in duplicates at each concentration. The A-screen intensity data were analyzed and compared. In the absence of the compound, the intensity in each data set was defined as 100% (Ce) activity. In the absence of enzyme, the intensity in each data set was defined as 0% (C0) activity. The percent activity in the presence of each compound was calculated according to the following equation: % activity=(C−C0)/(Ce−C0), where C=the intensity in the presence of the compound.
(§4) The value of percent activity versus a series of compound concentrations was then plotted using non-linear regression analysis of Sigmoidal dose-response curve generated with the equation Y=B+(T−B)/1+10((LogEC50−X)×Hill Slope), where Y=percent activity, B=minimum percent activity, T=maximum percent activity, X=logarithm of compound and Hill Slope=slope factor or Hill coefficient. The IC50 value was determined by the concentration causing a half-maximal percent activity.

GSK3β = GSK3β (Homo sapiens, UniProt P49841); assay: GSK3β in vitro enzymatic assay (Kinase-Glo Max luminescence); conditions: recombinant human GSK3, 10 μM ATP; approximate values; read-out: Potency GSK3beta
Protocol: (§5) Enzymatic activities of compounds of the present disclosure can be tested using recombinant human GSK3 in an in vitro enzymatic assay to determine the ability of the compounds of the present disclosure to inhibit GSK3α and GSK3β.
(§6) The assay was performed using Kinase-Glo® Max luminescence kinase assay kit (Promega). The assay measures kinase activity by quantitating the amount of ATP remaining in solution following a kinase reaction. The luminescent signal from the assay is correlated with the amount of ATP present and is inversely correlated with the amount of kinase activity.
(§7) To perform the assay, compounds were diluted in 10% DMSO and 5 μl of the dilution was added to a 50 μl reaction so that the final concentration of DMSO was 1% in all of reactions. The enzymatic reactions were conducted at 30° C. for 40 minutes. The 50 μl reaction mixture contained 40 mM Tris, pH 7.4, 10 mM MgCl2, 0.1 mg/ml BSA, 2 mM DTT, 0.1 mg/ml GSK tide substrate, 10 uM ATP and GSK3. After the enzymatic reaction, 50 μl of Kinase-Glo Max Luminescence kinase assay solution (Promega) was added to each reaction and plates were incubated for 15 minutes at room temperature. Luminescence signal was measured using a BioTek Synergy 2 microplate reader.
(§8) Kinase activity assays were performed in duplicate at each concentration. The luminescence data were analyzed using the computer software, GraphPad Prism. The difference between luminescence intensities in the absence of Kinase (Lut) and in the presence of Kinase (Luc) was defined as 100% activity (Lut-Luc). Using luminescence signal (Lu) in the presence of the compound, percent activity was calculated as: % activity={(Lut-Lu)/(Lut-Luc)}×100%, where Lu=the luminescence intensity in the presence of the compound (all percent activities below zero were shown zero in the table).
as §4, with “The values” for “The value”, “concentrations were” for “concentrations was”, “The ICs,” for “The IC50”

GSK3α = GSK3α (Homo sapiens, UniProt P49840); assay: GSK3α in vitro enzymatic assay (Kinase-Glo Max luminescence); conditions: recombinant human GSK3, 10 μM ATP; approximate values; read-out: Potency GSK3alpha
Protocol: as §5, §6, §7, §8
as §4, with “The values” for “The value”, “concentrations were” for “concentrations was”, “The ICs,” for “The IC50”

LSD2 = target: T1, LSD2 (Homo sapiens, UniProt Q8NB78); assay: LSD2 A-screen (AlphaScreen) demethylase enzymatic assay; conditions: approximate values; for inhibition at 50 µM: 50 μM compound, read-out: Potency LSD-2 % Inhibition at 50 μM; for IC50: read-out: Potency LSD-2 IC50
T1 sequence (Q8NB78 1-822): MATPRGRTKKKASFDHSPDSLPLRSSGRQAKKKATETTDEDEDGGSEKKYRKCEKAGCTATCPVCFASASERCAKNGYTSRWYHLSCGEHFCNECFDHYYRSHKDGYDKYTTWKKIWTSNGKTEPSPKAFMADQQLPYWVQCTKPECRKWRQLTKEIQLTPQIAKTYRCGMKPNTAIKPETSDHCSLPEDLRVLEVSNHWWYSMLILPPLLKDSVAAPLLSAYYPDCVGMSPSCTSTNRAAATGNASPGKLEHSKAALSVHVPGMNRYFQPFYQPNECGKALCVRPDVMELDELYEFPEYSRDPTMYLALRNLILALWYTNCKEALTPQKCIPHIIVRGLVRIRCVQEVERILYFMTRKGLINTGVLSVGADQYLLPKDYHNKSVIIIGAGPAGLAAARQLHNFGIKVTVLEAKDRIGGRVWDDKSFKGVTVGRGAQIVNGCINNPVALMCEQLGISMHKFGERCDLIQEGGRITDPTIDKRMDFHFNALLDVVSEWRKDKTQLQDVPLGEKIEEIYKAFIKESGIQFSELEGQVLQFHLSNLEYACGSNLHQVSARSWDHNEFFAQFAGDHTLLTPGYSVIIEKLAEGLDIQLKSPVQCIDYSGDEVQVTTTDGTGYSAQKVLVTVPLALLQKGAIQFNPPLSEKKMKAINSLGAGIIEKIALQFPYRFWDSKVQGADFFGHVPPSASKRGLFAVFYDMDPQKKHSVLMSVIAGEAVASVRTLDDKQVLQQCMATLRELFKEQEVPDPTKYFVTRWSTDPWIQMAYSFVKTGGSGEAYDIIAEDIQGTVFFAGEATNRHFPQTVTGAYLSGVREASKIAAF
Protocol: as §1, §2, §3, §4

Chain of GSK3α (P49840 whole entry): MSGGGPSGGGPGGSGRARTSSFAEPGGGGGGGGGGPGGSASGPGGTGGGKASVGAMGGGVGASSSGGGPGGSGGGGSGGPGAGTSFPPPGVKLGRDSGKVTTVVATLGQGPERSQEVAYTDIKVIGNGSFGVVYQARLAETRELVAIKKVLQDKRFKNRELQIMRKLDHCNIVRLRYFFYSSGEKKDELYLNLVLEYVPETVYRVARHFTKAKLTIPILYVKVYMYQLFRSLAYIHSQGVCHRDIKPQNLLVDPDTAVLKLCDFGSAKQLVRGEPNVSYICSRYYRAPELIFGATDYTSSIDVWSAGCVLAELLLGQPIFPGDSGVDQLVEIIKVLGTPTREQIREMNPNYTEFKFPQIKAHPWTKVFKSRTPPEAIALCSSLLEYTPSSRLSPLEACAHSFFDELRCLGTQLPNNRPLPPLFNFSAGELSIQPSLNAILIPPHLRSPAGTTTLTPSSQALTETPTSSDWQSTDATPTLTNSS
Chain of GSK3β (P49841 whole entry): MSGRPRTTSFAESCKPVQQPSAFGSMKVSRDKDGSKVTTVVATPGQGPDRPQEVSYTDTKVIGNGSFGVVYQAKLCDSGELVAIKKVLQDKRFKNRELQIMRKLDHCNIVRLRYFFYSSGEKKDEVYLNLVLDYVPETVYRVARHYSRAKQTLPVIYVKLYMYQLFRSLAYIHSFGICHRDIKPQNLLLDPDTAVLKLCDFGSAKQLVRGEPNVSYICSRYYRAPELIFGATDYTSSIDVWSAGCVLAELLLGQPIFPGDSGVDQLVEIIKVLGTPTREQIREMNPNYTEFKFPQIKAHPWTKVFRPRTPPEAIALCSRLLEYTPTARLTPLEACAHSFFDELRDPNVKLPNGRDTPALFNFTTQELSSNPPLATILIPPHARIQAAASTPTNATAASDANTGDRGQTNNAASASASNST

Row | inhibition at 50 µM (LSD-1) | IC50 (GSK3β) | IC50 (GSK3α) | inhibition at 50 µM (LSD2) | IC50 (LSD-1) | IC50 (LSD2) | Compound
1 | 26% | 268 nM | 72 nM | 15% | – | – | CCn1cc(C(=O)O)c(=O)c2c(N)c(F)c(N[C@H]3C[C@@H](c4ccccc4)C3)cc21 [Compound I-61]
2 | 22% | 1900 nM | 3800 nM | 6% | – | – | CCn1cc(C(=O)O)c(=O)c2c(N)c(F)c(NC3CCc4ccccc43)cc21 (stereo not drawn) [Compound I-10]
3 | 11% | 231 nM | 121 nM | 1% | – | – | CCn1cc(C(=O)O)c(=O)c2c(N)c(F)c(NCCc3ccccc3)cc21 [Compound I-18]
4 | 11% | 4430 nM | 4680 nM | 24% | – | – | CCn1cc(C(=O)O)c(=O)c2c(N)cc(N[C@@H]3C[C@H]3c3ccccc3)cc21 (relative stereo) [Compound I-59]
5 | 8% | 1.9 nM | 2 nM | 4% | – | – | CCn1cc(C#N)c(=O)c2c(N)c(F)c(NCCc3ccccc3)cc21 [Compound I-67]
6 | 2% | 223 nM | 352 nM | 2% | – | – | CCn1cc(C(=O)O)c(=O)c2c(N)c(F)c(NC3CC3)cc21 [Compound I-15]
7 | – | 546 nM | 457 nM | – | 58 nM | 43 µM | CCn1cc(C(=O)O)c(=O)c2c(N)c(F)c(NCCN[C@@H]3C[C@]34CCc3ccccc34)cc21 (relative stereo) [Compound I-81]
8 | – | 2.2 nM | 2.7 nM | – | 1400 nM | 41 µM | CCn1cc(C#N)c(=O)c2c(N)c(F)c(NCCN[C@@H]3C[C@H]3c3ccccc3)cc21 (relative stereo) [Compound I-84]
9 | 0% | 711 nM | 581 nM | 96% | – | – | CCn1cc(-c2nnn[nH]2)c(=O)c2c(N)c(F)c(NCCc3ccccc3)cc21 [Compound I-68]
10 | 15% | 2.5 nM | 6.3 nM | 0% | – | – | CCn1cc(C#N)c(=O)c2c(N)c(F)c(N[C@@H]3C[C@H]3c3ccccc3)cc21 (relative stereo) [Compound I-38]
11 | 10% | 6700 nM | 3600 nM | 6% | – | – | CCn1cc(C(=O)O)c(=O)c2cc(F)c(NC3CCCCC3)cc21 [Compound I-1]
12 | 88% | > 10000 nM | > 10000 nM | 38% | – | – | CCn1cc(C(=O)O)c(=O)c2c(N)cc(NCCc3ccccc3)c(F)c21 [Compound I-65]
13 | 32% | 68 nM | 107 nM | 5% | – | – | CCn1cc(C(=O)O)c(=O)c2c(N)c(F)c(Nc3ccccc3)cc21 [Compound I-16]

Second part, the compound before the results:

Row | Compound | inhibition at 50 µM (LSD-1) | IC50 (GSK3β) | IC50 (GSK3α) | inhibition at 50 µM (LSD2) | IC50 (LSD-1) | IC50 (LSD2)
14 | CC(C)n1cc(C(=O)O)c(=O)c2c(N)c(F)c(NCCN[C@@H]3C[C@H]3c3ccccc3)cc21 (relative stereo) [Compound I-88] | – | 83 nM | 19.5 nM | 14% | 2600 nM | –
15 | CCn1cc(C(N)=O)c(=O)c2c(N)c(F)c(NCCN[C@H]3C[C@@H]3c3ccccc3)cc21 (relative stereo) [Compound I-83] | – | 3.4 nM | 3.3 nM | – | 230 nM | > 100 µM
16 | Nc1c(F)c(N[C@@H]2C[C@H]2c2ccccc2)c(F)c2c1c(=O)c(C(=O)O)cn2C1CC1 (relative stereo) [Compound I-32] | 40% | 2100 nM | 1600 nM | 36% | – | –
17 | Cn1cc(C(=O)O)c(=O)c2c(N)c(F)c(NCCN[C@@H]3C[C@H]3c3ccccc3)cc21 (relative stereo) [Compound I-86] | – | 2170 nM | 919 nM | 6% | 1900 nM | –
18 | CCn1cc(C(=O)O)c(=O)c2c(N)c(F)c(NC3CN(c4ccccc4)C3)cc21 [Compound I-69] | 17% | 52 nM | 61 nM | 3% | – | –
19 | CCn1cc(C(=O)O)c(=O)c2c(N)c(F)c(NC3Cc4ccccc4C3)cc21 [Compound I-11] | 27% | 990 nM | 846 nM | 13% | – | –
20 | CCn1cc(C(=O)O)c(=O)c2c(N)c(F)c(N[C@@H]3CC[C@H]3c3ccccc3)cc21 (relative stereo) [Compound I-13] | 26% | 555 nM | 628 nM | 18% | – | –
21 | CCn1cc(C(=O)O)c(=O)c2c(N)c(F)c(NCc3ccccc3)cc21 [Compound I-17] | 2% | 2030 nM | 659 nM | 19% | – | –
22 | CCn1cc(C(=O)O)c(=O)c2c(N)c(F)c(NC3CCCC3)cc21 [Compound I-9] | 6% | 53 nM | 69 nM | 3% | – | –
23 | CCn1cc(C(=O)O)c(=O)c2c(N)c(F)c(N[C@H]3CC[C@@H](N[C@@H]4C[C@H]4c4ccccc4)CC3)cc21 (relative stereo) [Compound I-28] | – | 691 nM | 451 nM | 65% | 1300 nM | –
24 | CCn1cc(C(=O)O)c(=O)c2c(N)c(F)c(N[C@H]3C[C@@H]3c3ccccc3)cc21 [Compound I-22] | 11% | 115 nM | 137 nM | 2% | – | –
